Reference: paper PMC5754397, “Population pharmacokinetics of nintedanib, an inhibitor of tyrosine kinases, in patients with non-small cell lung cancer or idiopathic pulmonary fibrosis” (Cancer Chemotherapy and Pharmacology, 2017)
Values joined by “and” are separate entries in the source; they are usually repeats but may differ in a detail not shown here. Equal entries are not always repeated. Marks after values point to notes of the source that are not given here. One block for each compound: values may come before it.

Assays:
target receptors = system: target receptors; set-up: method as in PMID 21204634; conditions: cited from earlier work
PDGFRα = system: PDGFRα; set-up: method as in Boehringer Ingelheim unpublished data, 14; conditions: PDGFRα stimulation of primary lung fibroblasts; ref Boehringer Ingelheim unpublished data, 14; cited from earlier work
[1] = Population pharmacokinetic analysis in healthy subjects after intravenous administration of nintedanib (one-compartment model); format: in vivo, human; conditions: healthy subjects, intravenous nintedanib; estimate (RSE%)
Excerpt: The pharmacokinetic profile of BIBF 1202 was best described by a one-compartment model with first-order elimination (see Online Resource Fig. S1 for model structure). To account for formation of BIBF 1202 in the intestine or via hepatic first-pass effect, a first-order absorption with lag time (ALAG2) was implemented as per nintedanib absorption. The relative bioavailability (F2) and the absorption-rate constant (k a2) were implemented as functions of nintedanib F1 and k a, respectively (substantial drop in OFV as compared to a model, where F2 and k a2 were estimated independently of F1 and k a). This parametrization accounted for correlations between nintedanib and BIBF 1202 parameters and replaced the full variance–covariance matrix which was not applied due to the sequential modeling approach used. The rate of formation of BIBF 1202 (k met) during nintedanib systemic elimination was accounted by defining it as a function of nintedanib clearance: k met = CL/V2*ffM, where CL and V2 denote the clearance and central volume of distribution of nintedanib respectively, and ffM denotes the proportion of the nintedanib elimination resulting in BIBF 1202 formation. Due to the lack of data for BIBF 1202 given as an intravenous (IV) infusion, several parameter estimates were not identifiable (ffM, BIBF 1202 apparent volume of distribution [V3/F]) and were, therefore, fixed. The value for ffM was derived from pharmacokinetic data after IV administration of nintedanib (Online Resource Table S4) and the ratio of V3/F–V2/F was fixed based on information observed in rats. […] In addition to the (inter-individual) variability of F2 induced by the variability in F1 (F2 being proportional to F1), additional IIV could be implemented for F2.
Table S4 Structural parameters for nintedanib and BIBF 1202 from a population pharmacokinetic analysis based on healthy subjects (n=23^a, 372 observations) after intravenous administration of nintedanib
One subject (3 mg dose) was excluded from analysis due to increasing plasma concentrations of nintedanib after end of infusion

[2] = set-up: method as in PMID 21204634; conditions: dedicated ADME study; cited from earlier work
[3] = system: VEGF or bFGF stimulation of human umbilical vascular endothelial cells; set-up: method as in Boehringer Ingelheim unpublished data, 14; conditions: VEGF or bFGF stimulation of HUVEC; ref Boehringer Ingelheim unpublished data, 14; cited from earlier work
mouse xenograft models = system: mouse xenograft models; set-up: method as in ref 7 = [7]; 7. European Medicines Agency (2014) Committee for Medicinal Products for Human Use (CHMP) Assessment Report for Vargatef (nintedanib), 25 September 2014. http://www.ema.europa.eu/docs/en_GB/document_l; conditions: cited from earlier work
[4] = Population pharmacokinetic model of metabolite BIBF 1202 plasma concentrations in patients with NSCLC or IPF treated with nintedanib; format: in vivo, human
Excerpt: This population pharmacokinetic analysis pooled data from nintedanib treatment in four clinical studies; 1 Phase II (n = 73) and two Phase III trials in patients with NSCLC (LUME-Lung 1 (n = 652) and LUME-Lung 2 (n = 347)) and one Phase II trial (TOMORROW, n = 343) in patients with IPF [11] (data from IPF Phase III trials were not available at time of analysis). An overview of these studies is provided in Online Resource Table S1. In the NSCLC Phase II trial, patients with locally advanced or metastatic relapsed NSCLC in whom first- or second line platinum-based chemotherapy had failed and were randomized to nintedanib 150 or 250 mg twice-daily. Treatment continued until disease progression or intolerable toxicity. In the NSCLC Phase III trials, nintedanib 200 mg twice-daily or placebo was given in repeated 21 day treatment cycles in combination with single infusions of docetaxel 75 mg/m^2 (LUME-Lung 1 trial) or pemetrexed 500 mg/m^2 (LUME-Lung 2 trial), administered on day 1 of each cycle. Treatment cycles were continued until disease progression or intolerable toxicity. In the Phase II trial in patients with IPF [11], patients were randomized to a 52-week treatment period with one of the four doses of nintedanib (50 mg once or twice-daily, 100, 150 mg twice-daily) or placebo. In all four trials, dose reductions and interruptions were allowed to manage adverse events. All studies were conducted in accordance with the Declaration of Helsinki and with approval of the local ethics committees. Written informed consent was obtained from all patients before study entry.
Blood sampling schema for measurement of nintedanib plasma concentrations varied. For all trials, at least two pre-dose and two post-dose blood samples were scheduled during treatment (see Online Resource Table S1). In addition, more extensive sampling was performed in the two Phase II trials. Nintedanib and BIBF 1202 plasma concentrations were analyzed by validated liquid chromatography–mass spectrometry (HPLC–MS/MS) methods. The calibration curves covered the range 0.5–500 ng/mL for nintedanib and 1–1000 ng/mL for BIBF 1202 in undiluted plasma samples and were linear over this range.
The population pharmacokinetic analysis was performed using non-linear mixed-effects modeling techniques (NONMEM, version VI 2.0, ICON Development Solutions, Ellicott City, Maryland, USA). The first-order conditional estimation algorithm with interaction was used. Data processing, diagnostic plots, and calculation of descriptive statistics were performed using R version 2.12.1 (http://www.rproject.org) and SAS version 9.2 (SAS Institute Inc, Cary, NC, USA). Bootstrap analysis was performed using Perl-speaks-NONMEM, version 3.5.3 [24, 25].
Using fixed pharmacokinetic parameter estimates from the nintedanib base model (typical values plus empirical Bayes estimates of individual η), the base model of BIBF 1202 was developed. Plasma concentrations of nintedanib and BIBF 1202 were reported in nM to account for differences in their molecular weight.
The covariate analysis for BIBF 1202 was based on the fixed pharmacokinetic parameters of the final nintedanib model and base model of BIBF 1202 and followed the same principles described for nintedanib (see Online Resource Table S3).
Model evaluation for BIBF 1202 was analogous to nintedanib, with the exception of the non-parametric bootstrap analysis.
Finally, after the sequential pharmacokinetic analysis for nintedanib and BIBF 1202, the parameters for the final models of nintedanib and BIBF 1202 were estimated simultaneously.
To illustrate individual covariate effects, the change in the median steady-state nintedanib and BIBF 1202 plasma concentration–time profiles were compared to the exposure in a typical patient. The typical patient was defined by baseline medians (continuous covariate) and modes (categorical covariate) of the respective covariates in the total analyzed population. […]

PDGFRβ = system: PDGFRβ; set-up: method as in Boehringer Ingelheim unpublished data, 14; conditions: PDGFRβ stimulation of primary lung fibroblasts; ref Boehringer Ingelheim unpublished data, 14; cited from earlier work
[5] = final BIBF 1202 model (sequential fit), estimate (RSE%)
[6] = final BIBF 1202 model (sequential fit), reference Caucasian/Black origin = 1.00, estimate (RSE%)

SMILES: CN1CCN(CC(=O)N(C)c2ccc(N/C(=C3\C(=O)Nc4cc(C(=O)O[C@@H]5O[C@H](C(=O)O)[C@@H](O)[C@H](O)[C@H]5O)ccc43)c3ccccc3)cc2)CC1 [BIBF 1202 glucuronide]
in vitro activity at the target receptors (target receptors): did not show in vitro activity

CL2, total body clearance for BIBF 1202 [1]: 0.513 (17.0) L/h | changes in BIBF 1202 exposure by ECOG performance status and LDH ([4]; covariates influencing BIBF 1202 but not nintedanib exposure): < 30% | IIV in F2 ([4]; final BIBF 1202 model (sequential fit), estimate (RSE% on the variance scale)): 56.7 (8.60^f) CV% and 56.7 (8.60^e) CV% | CL2/F (θCL2), apparent total body clearance for BIBF 1202 [4, 5]: 7.05 (6.37) L/h | F2/F1 (θF2F1), ratio of relative bioavailabilities BIBF 1202 to nintedanib [4, 5]: 0.0110 (11.3) | covariate effect on F2, θLDH_Breakpoint (breakpoint for LDH) [4, 5]: 688 (22.0) U/L | covariate effect on F2, θWT [4, 5]: -0.848 (12.2) | ka2/ka (θka2ka), ratio of absorption rate constants BIBF 1202 to nintedanib [4, 5]: 1.47 (8.16) | covariate effect on F2, θLDH (coefficient for LDH [U/L]) ([4]; final BIBF 1202 model (sequential fit), hockey-stick function, estimate (RSE%)): 0.000656 (22.1) | covariate effect on F2, θEthnicity: Asian origin (except for Indian) [4, 6]: 1.20 (4.83) | covariate effect on F2, θEthnicity: Indian origin [4, 6]: 1.90 (13.5) | covariate effect on F2, θECOG: ECOG≥1 ([4]; final BIBF 1202 model (sequential fit), reference ECOG=0 = 1.00, estimate (RSE%)): 1.16 (4.16) | covariate effect on ka2, θTrial: NSCLC Phase II and IPF Phase II ([4]; final BIBF 1202 model (sequential fit), reference LUME-Lung 1 and LUME-Lung 2 = 1.00, estimate (RSE%)): 0.756 (7.72) | covariate effect on ka2, θNSCLC_histology: non-adenocarcinoma ([4]; final BIBF 1202 model (sequential fit), reference adenocarcinoma = 1.00, estimate (RSE%)): 1.36 (8.90) | share of BIBF 1202 in plasma formed systemically ([4]; final model, systemic formation rate fixed to the value from the IV study): about 8% | upper limit of the predicted 2 h post-dose concentration for Indian patients ([4]; pcQPC of the final BIBF 1202 model, 95% prediction interval of simulated medians, steady state): 88 ng/mL | F2/F1 (θF2F1) ([4]; simultaneous estimation): 0.0153 (–) | IIV in F2 ([4]; simultaneous estimation): 47.9 (–) CV% | covariate effect on F2, θECOG: ECOG≥1 ([4]; simultaneous estimation): 1.13 (–) | covariate effect on F2, θEthnicity: Asian origin (except for Indian) ([4]; simultaneous estimation): 1.19 (–) | covariate effect on F2, θEthnicity: Indian origin ([4]; simultaneous estimation): 1.81 (–) | covariate effect on F2, θLDH (coefficient for LDH [U/L]) ([4]; simultaneous estimation): 0.00064 (–) | covariate effect on F2, θLDH_Breakpoint (breakpoint for LDH) ([4]; simultaneous estimation): 683 (–) U/L | covariate effect on F2, θWT ([4]; simultaneous estimation): -0.791 (–) | covariate effect on ka2, θNSCLC_histology: non-adenocarcinoma ([4]; simultaneous estimation): 1.24 (–) | covariate effect on ka2, θTrial: NSCLC Phase II and IPF Phase II ([4]; simultaneous estimation): 0.864 (–) | ka2/ka (θka2ka) ([4]; simultaneous estimation): 1.14 (–) | CL2/F (θCL2) ([4]; simultaneous estimation of nintedanib and BIBF 1202 models, RSE not available): 9.68 (–) L/h
SMILES: CN1CCN(CC(=O)N(C)c2ccc(N/C(=C3\C(=O)Nc4cc(C(=O)O)ccc43)c3ccccc3)cc2)CC1 [BIBF 1202]
lower potency compared to nintedanib (PDGFRα): 265 fold | metabolic ratio for AUC (BIBF 1202 to nintedanib) [2]: ~1 | metabolic ratio for Cmax (BIBF 1202 to nintedanib) [2]: ~1 | lower potency compared to nintedanib [3]: 9–10 fold | efficacy in mouse xenograft models (mouse xenograft models): not effective | lower potency compared to nintedanib (PDGFRβ): 607 fold
